Among the data in ChEMBL document CHEMBL5465560, “Selectivity Literature for EUbOPEN Chemogenomic Library” (2024) are % of control, % of inhibition and % of engagement values, retold here.

Assay [1] deals with T1, Dual serine/threonine and tyrosine protein kinase (Homo sapiens) (UniProt Q6XUX3).
T1 sequence (whole entry): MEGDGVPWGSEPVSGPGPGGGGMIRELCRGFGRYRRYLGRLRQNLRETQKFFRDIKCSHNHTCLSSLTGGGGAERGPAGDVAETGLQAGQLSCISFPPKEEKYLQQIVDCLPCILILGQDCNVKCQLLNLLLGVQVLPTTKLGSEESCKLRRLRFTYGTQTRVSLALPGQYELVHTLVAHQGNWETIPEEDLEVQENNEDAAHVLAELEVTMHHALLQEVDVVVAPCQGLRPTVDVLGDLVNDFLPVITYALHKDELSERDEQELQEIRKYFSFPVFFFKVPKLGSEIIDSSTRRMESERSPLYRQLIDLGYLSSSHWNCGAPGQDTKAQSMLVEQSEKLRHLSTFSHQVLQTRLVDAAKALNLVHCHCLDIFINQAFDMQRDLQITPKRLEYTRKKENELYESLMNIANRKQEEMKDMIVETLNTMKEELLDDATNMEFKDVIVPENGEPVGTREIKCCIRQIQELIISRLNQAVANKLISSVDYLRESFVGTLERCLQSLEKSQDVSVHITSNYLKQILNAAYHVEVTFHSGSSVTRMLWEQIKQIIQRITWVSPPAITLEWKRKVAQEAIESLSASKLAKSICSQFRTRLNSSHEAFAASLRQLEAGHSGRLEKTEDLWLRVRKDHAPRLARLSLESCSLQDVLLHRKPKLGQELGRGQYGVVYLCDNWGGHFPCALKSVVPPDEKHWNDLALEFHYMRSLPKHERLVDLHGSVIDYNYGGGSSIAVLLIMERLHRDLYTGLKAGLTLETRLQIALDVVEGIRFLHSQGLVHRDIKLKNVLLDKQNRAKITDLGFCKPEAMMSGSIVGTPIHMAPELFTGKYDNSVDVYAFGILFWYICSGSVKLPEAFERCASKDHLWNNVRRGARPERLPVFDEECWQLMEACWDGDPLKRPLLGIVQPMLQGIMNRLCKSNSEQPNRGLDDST
Put plainly: Selectivity interaction (KinomeScan (DiscoverX)) EUB0000695a DSTYK. Particulars: at 100 nM.

The target in assay [2] is T2, Homeodomain-interacting protein kinase 4 (Homo sapiens) (UniProt Q8NE63).
T2 sequence (whole entry): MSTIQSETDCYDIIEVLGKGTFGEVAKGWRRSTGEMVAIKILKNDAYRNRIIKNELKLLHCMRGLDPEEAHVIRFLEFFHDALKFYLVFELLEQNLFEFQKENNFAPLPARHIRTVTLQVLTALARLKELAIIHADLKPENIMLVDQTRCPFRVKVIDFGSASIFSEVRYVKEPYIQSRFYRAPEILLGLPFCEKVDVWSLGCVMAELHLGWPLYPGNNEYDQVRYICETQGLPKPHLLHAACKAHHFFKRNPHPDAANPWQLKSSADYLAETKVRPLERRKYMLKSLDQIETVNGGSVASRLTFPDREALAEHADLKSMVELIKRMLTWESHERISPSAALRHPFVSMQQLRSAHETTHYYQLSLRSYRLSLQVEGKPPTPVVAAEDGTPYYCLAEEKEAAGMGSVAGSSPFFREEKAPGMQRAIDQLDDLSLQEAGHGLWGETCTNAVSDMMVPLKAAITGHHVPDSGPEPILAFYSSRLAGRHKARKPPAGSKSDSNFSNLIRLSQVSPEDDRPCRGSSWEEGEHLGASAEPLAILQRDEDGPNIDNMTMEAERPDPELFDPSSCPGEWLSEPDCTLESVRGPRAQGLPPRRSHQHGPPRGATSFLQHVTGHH
Put plainly: Selectivity interaction (KinomeScan (DiscoverX)) EUB0000666a HIPK4. Particulars: at 10 µM.

In assay [3] the target is Mitogen-activated protein kinase kinase kinase 10 (Homo sapiens) (UniProt Q02779). As to the kind of experiment: Selectivity interaction (Kinase panel (Invitrogen)) EUB0000639a MAP3K10. Particulars: at 200 nM.
In assay [4] the target is T3, Serine/threonine-protein kinase D2 (Homo sapiens) (UniProt Q9BZL6).
T3 sequence (whole entry): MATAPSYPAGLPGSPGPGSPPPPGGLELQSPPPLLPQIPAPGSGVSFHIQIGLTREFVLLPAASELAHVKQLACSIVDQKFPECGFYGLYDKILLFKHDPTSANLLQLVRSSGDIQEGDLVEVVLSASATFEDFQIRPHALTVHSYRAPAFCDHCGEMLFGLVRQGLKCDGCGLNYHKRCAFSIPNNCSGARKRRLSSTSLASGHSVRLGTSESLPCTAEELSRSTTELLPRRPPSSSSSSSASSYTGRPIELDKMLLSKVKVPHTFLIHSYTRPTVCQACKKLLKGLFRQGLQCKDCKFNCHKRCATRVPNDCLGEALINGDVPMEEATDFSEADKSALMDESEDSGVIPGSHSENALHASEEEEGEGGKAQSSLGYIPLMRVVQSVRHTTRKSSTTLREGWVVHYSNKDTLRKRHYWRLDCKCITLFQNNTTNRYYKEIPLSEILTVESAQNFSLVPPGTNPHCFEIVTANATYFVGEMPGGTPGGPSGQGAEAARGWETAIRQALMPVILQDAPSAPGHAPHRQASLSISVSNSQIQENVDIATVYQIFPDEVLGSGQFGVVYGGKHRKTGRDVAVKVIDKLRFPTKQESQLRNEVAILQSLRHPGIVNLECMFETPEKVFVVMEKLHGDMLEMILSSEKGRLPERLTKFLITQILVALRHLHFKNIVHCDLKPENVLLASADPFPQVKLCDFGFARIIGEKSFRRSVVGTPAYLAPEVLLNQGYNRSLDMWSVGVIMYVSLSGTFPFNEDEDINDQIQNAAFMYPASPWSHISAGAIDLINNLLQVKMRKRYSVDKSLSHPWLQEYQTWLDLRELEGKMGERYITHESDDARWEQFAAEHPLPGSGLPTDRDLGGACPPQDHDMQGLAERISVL
Put plainly: Selectivity interaction (ActivX KiNativ screen (kinase selectivity in THP-1 cell lysates)) EUB0000639a PRKD2. It is filed as subcellular. The conditions noted are these: lysate, at 1 µM.

Assay [5] has as its target Mitogen-activated protein kinase kinase kinase kinase 1 (Homo sapiens) (UniProt Q92918). Put plainly: Selectivity interaction (KinomeScan (DiscoverX)) EUB0000092b MAP4K1. Particulars: at 10 µM.
Assay [6] concerns Proto-oncogene tyrosine-protein kinase receptor Ret (Homo sapiens), P07949 [M918T]. As to the kind of experiment: (§1) Selectivity interaction (KinomeScan (DiscoverX)) EUB0001079a RET. The conditions noted are these: at 1 µM.
Assay [7] relates to Proto-oncogene tyrosine-protein kinase receptor Ret (Homo sapiens), P07949 [V804M]. The assay is described as §1. Particulars: at 1 µM.
Assay [8] concerns Proto-oncogene tyrosine-protein kinase receptor Ret (Homo sapiens), P07949 [V804L]. The description is as §1. Particulars: at 1 µM.
For assay [9], the target named is Proto-oncogene tyrosine-protein kinase receptor Ret (Homo sapiens, UniProt P07949). The assay is described as §1. The conditions noted are these: at 1 µM.
Assay [10] addresses Serine/threonine-protein kinase 26 (Homo sapiens, UniProt Q9P289). As to the kind of experiment: Selectivity interaction (Kinase panel (KiNativ target engagement assay in Jurkat cells)) EUB0001635a STK26. The conditions noted are these: Selectivity number of off-targets 0.0, Selectivity number of targets 233.0, Source Knowledge https://www.sciencedirect.com/science/article/pii/S2451945619300674?via%3Dihub, at 1 µM. It is filed as cell-based.

Chain of Mitogen-activated protein kinase kinase kinase kinase 1 (Homo sapiens) (Q92918 whole entry, looked up): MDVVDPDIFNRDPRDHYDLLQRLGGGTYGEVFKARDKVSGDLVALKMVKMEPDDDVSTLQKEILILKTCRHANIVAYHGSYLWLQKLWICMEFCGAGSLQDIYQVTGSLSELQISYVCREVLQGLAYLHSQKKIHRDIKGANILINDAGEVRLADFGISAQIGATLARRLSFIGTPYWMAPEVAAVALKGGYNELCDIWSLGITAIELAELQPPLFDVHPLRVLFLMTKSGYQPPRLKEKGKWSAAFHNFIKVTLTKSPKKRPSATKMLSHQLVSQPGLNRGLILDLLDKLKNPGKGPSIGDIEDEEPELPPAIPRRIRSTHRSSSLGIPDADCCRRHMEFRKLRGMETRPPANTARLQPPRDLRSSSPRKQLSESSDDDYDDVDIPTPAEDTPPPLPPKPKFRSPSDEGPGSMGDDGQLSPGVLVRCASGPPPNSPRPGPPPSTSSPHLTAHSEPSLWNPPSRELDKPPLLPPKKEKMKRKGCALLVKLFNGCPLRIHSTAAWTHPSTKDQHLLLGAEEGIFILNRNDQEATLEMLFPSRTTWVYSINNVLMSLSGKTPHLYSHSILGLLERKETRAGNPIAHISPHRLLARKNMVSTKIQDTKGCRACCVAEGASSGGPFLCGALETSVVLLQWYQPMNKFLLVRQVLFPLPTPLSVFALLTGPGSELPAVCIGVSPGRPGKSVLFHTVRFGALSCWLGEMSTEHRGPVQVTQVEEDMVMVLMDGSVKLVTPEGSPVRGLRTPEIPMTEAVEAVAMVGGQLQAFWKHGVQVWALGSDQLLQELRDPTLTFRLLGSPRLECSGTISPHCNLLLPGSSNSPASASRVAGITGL
Chain of Proto-oncogene tyrosine-protein kinase receptor Ret (Homo sapiens), P07949 [M918T] (P07949 whole entry M918T): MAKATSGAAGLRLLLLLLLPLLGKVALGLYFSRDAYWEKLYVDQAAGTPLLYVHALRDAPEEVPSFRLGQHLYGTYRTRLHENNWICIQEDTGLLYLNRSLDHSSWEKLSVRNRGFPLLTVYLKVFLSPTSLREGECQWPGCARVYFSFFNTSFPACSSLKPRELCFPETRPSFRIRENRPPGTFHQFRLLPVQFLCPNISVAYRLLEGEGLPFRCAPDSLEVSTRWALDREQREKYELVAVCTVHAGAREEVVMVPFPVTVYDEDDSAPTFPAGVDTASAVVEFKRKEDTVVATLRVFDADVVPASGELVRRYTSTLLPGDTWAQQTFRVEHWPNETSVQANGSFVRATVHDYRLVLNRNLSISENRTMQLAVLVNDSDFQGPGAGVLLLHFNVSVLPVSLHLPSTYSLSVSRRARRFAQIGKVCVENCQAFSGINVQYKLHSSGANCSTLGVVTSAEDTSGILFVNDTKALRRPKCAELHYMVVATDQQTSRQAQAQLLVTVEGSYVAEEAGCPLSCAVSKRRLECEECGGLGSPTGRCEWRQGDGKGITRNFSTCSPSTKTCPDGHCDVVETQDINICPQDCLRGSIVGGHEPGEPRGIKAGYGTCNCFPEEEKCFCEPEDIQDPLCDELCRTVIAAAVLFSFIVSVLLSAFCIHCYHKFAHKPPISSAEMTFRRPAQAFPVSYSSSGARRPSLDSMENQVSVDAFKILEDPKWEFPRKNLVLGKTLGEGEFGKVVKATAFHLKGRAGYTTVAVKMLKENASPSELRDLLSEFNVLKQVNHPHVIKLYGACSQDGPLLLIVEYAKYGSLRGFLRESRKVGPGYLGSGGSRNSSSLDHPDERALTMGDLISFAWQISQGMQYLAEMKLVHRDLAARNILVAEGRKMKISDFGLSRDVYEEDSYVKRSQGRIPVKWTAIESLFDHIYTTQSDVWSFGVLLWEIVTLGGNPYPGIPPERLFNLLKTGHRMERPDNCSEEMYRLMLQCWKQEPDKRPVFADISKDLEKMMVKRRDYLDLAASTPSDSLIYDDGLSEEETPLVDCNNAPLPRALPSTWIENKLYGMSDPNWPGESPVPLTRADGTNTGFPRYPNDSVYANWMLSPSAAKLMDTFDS
Chain of Serine/threonine-protein kinase 26 (Q9P289 2-416 limits assumed): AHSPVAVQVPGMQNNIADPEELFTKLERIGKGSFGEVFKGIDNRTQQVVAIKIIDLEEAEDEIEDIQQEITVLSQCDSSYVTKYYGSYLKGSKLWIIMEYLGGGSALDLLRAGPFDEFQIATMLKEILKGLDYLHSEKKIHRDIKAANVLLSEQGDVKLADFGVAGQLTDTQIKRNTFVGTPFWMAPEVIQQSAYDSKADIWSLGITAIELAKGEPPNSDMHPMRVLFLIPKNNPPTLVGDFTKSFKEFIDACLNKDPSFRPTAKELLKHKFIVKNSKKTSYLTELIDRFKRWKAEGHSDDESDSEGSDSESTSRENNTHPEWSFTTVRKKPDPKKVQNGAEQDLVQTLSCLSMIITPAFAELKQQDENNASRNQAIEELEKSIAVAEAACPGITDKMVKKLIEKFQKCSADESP
Chain of Mitogen-activated protein kinase kinase kinase 10 (Homo sapiens) (Q02779 whole entry, looked up): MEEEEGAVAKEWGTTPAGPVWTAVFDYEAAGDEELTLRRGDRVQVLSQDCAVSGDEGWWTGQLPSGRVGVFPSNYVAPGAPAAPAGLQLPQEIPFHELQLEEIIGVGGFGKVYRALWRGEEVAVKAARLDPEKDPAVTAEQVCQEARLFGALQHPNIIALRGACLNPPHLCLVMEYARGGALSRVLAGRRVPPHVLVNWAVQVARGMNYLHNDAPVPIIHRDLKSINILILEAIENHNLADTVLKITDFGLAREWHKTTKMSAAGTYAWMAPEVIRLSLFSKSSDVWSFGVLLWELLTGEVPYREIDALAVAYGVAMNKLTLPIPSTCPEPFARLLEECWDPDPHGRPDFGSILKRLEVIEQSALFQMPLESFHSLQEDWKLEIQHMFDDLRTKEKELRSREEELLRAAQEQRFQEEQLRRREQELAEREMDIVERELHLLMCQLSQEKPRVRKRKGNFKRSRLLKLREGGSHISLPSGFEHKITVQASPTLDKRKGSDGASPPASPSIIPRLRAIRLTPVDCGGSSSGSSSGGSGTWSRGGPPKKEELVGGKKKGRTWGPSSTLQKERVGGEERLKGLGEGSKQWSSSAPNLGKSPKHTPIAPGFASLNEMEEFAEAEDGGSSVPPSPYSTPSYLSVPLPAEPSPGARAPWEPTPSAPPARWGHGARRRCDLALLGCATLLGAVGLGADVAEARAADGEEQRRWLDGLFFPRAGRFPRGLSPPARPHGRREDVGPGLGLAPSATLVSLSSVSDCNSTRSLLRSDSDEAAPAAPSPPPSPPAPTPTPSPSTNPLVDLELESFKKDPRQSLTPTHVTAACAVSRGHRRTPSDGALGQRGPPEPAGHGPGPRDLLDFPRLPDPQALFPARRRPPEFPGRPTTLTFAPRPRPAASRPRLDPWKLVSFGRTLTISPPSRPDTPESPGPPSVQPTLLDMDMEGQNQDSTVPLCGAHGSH
Chain of Proto-oncogene tyrosine-protein kinase receptor Ret (Homo sapiens), P07949 [V804L] (P07949 whole entry V804L): as the sequence (P07949 whole entry M918T) above, with V804L, T918M counted along it
Chain of Proto-oncogene tyrosine-protein kinase receptor Ret (Homo sapiens), P07949 [V804M] (P07949 whole entry V804M): as the sequence (P07949 whole entry M918T) above, with V804M, T918M counted along it
Chain of Proto-oncogene tyrosine-protein kinase receptor Ret (P07949 whole entry): as the sequence (P07949 whole entry M918T) above, with T918M counted along it

As for `Cc1cc(F)c(C(=O)Nc2cccc(-c3nncn3C(C)C)n2)cc1-n1cnc(C2CC2)c1`, in assay [1], the % of control is 79%. In assay [2], `O=C(NOC[C@H](O)CO)c1ccc(F)c(F)c1Nc1ccc(I)cc1F` yielded a % of control of 100%. For `CC[C@@H]1[C@H](F)C(=O)N[C@@H]1COc1nccc2cc(C(N)=O)c(OC)cc12` [ZIMLOVISERTIB], the results for the % of inhibition in assay [3] and in [4] were -1.18% and 8%, respectively. `CCC(=O)N1CCN(c2ccc(-n3c(=O)ccc4cnc5ccc(-c6cnc7ccccc7c6)cc5c43)cc2C(F)(F)F)CC1` had a % of control in [5] of 30%. On to `Nc1cnc(N2CCc3cc(S(=O)(=O)Nc4c(F)cc(Cl)cc4F)cc(N4CCCC4=O)c32)nc1` [TP-020n], for which the % of control was found to be 100% in assay [6], 100% in [7], 99% in assay [8] and 89% in [9]. The molecule `C=CC(=O)Nc1ccc(C(=O)Nc2[nH]nc3c2CN(C(=O)N[C@H](CN(C)C)c2ccccc2)C3(C)C)cc1` gave a % of engagement in assay [10] of 26%.
